Source: paper PMC5617480 (Oncotarget, 2017)

System: BEL-7402 xenograft
Test: In vivo tumor growth inhibition, BEL-7402 xenograft model
Settings: BEL-7402 model; for Average tumor weight (mean ± SD g) / Tumor volume (End) / Body weight (End) / RBW (%) (End): day 18; for inhibition in weight: p<0.05
Description: In vivo anticancer efficacy of chiral platinum(II) complex 6 was evaluated using BEL-7404 and BEL-7402 xenograft mouse models. BEL-7404 and BEL-7402 cells were injected into nude mice. The mice were randomized into the control group, complex 6-treated group, and the positive control group (n = 6/group). When the volume of tumor was about 80 mm^3, complex 6 was given at a high (8 mg/kg) and low (4 mg/kg) dosage daily for 18 days, 5-FU (20 mg/kg every two days) and Cisplatin (2 mg/kg every two days) were used as a positive control in the BEL-7404 and BEL-7402 xenograft model, respectively.
To evaluate the vivo anticancer efficacy of complex 6, BEL-7404 and BEL-7402 xenograft mouse models (BALB/c nude mice, female for BEL-7404 model, 17–20 g, 6–7 weeks old; male for BEL-7402 model, 18-21 g, 6–7 weeks old) were used. Furthermore, animal used, maximum tolerated dose (MTD) analysis, acute toxicity studies and antitumor activity toward BEL-7404 and BEL-7402 models in vivo of complex 6, was similar to Chen reported.
H21T (3.5 pmol; 5’-G [T AG ] -3’), primer TS (18 pmol; tumor tissue were cut into about 1.5 mm3 small pieces, and […]
5’-[…]-3’), KCl (63 mM), then transplanted into the right flank of nude mice. When EGTA (1 mM), MgCl (1.5 mM), Tween-20 (0.005%), the average tumors reach a volume of about 80 mm3, the […]
primer NT (7.5 pmol; 5’-[…]-3’), mice were randomized into 4 groups (n=6), received the […]
TSNT internal control (0.01 amol; 5’-[…] following treatments: (a) control, received saline solvent; […]
-3’), primer (b) complex 6 at doses of 8.0 mg/kg daily (dissolve in […]
Cxext (22.5 pmol; 5’-[…] saline, iv); (c) complex 6 at doses of 4.0 mg/kg daily; […]
[…]-3’), Taq DNA polymerase (2.5 U), and (d) in BEL-7404 model, 5-fluorouracil (5-Fu) as positive telomerase (100 ng). Complexes or/and distilled water control at 20 mg/kg per two days (dissolve in saline, iv); was added ([…]). PCR was performed in an Eppendorf in BEL-7402 model, cisplatin as positive control at 2 mg/ Master cycler equipped with a hot lid and incubated for kg per two days (dissolve in saline, iv).
30.0 min at 30 °C, followed by 92 °C 30 s, 52 °C 30 s, The tumor volumes and body weight was monitored and 72°C 30 s for 30.0 cycles. After amplification, 8.0 every 3 days, The tumor volumes were estimated by […] loading buffer (5×TBE buffer, 0.2% xylene cyanol, measuring the two dimensions of the tumors using caliper and 0.2% bromophenol blue ) were added to the reaction. and calculated by the formula 1 [1, 6, 14]:
An […] of aliquot was loaded onto a nondenaturing V = (length × width2)/2(1) acrylamide gel (19:1, 16%) in 1×TBE buffer and resolved at 200.0 V for 1.0 h. Gels were fixed and then stained with On day 18, the mice were sacrificed, and tumor AgNO3 [8–11]. tissue were dissected out and weighted, tumor growth inhibition rate calculated using formulas 2 and 3 [1, 6,
In order to verify whether complexes 4–6 can TGI (%) = (ΔVc − ΔVt)/ΔVc×100%(2) directly regulate c-myc promoter (Pu27) and the IR(%) = (Wc − Wt)/Wc×100%(3) expression of hTRET in BEL-7404 cells, consequently Where ΔVt = tumor volumefinal −tumor volumeinitial inhibiting the telomerase function, we constructed EGFP for compound treated group, ΔVc=tumor volumefinal − and c-myc gene vectors according to those illustrated tumor volumeinitial for vehicle control group; Wt and Wc in Chalfie, Chen and He previous work. The detailed mean the average tumor weight of complex-treated and procedures for the construct of gene (c-myc and EGFP vehicle controlled group respectively. genes) vectors, and the method of transfection assays REFERENCES have been reported by Chalfie, Chen and He [1, 6, 9, 12,

[1] = Cisplatin 2.0 mg/kg per two days iv

Molecule: N.N.[Cl][Pt][Cl] [cisplatin, reference compound]
- Tumor volume (start) [1]: 78.6±37.7 mm3
- Average tumor weight (mean ± SD g) [1]: 0.38 ± 0.18 g
- Tumor volume (End) [1]: 329.9±155.2 mm3

Molecule: cis-[PtCl2(S-(–)-FOA)] [complex 6]
- inhibition in weight (4 mg/kg daily for 18 days): 32.9%
- inhibition in weight (8 mg/kg daily for 18 days): 47.1%
- Body weight (start) (6 4.0 mg/kg daily iv): 19.1 ± 1.6 g
- Tumor volume (start) (6 4.0 mg/kg daily iv): 78.7±58.4 mm3
- Average tumor weight (mean ± SD g) (6 4.0 mg/kg daily iv): 0.84 ± 0.39 g
- Body weight (End) (6 4.0 mg/kg daily iv): 22.3 ± 1.3 g
- RBW (%) (End) (6 4.0 mg/kg daily iv): 117.7±6.3%
- Tumor volume (End) (6 4.0 mg/kg daily iv): 648.8±242.1 mm3
- TGI (%) (6 4.0 mg/kg daily iv, day 18, by tumor volume): 32.9%
- Inhibition of tumor growth (%) (6 4.0 mg/kg daily iv, day 18, by tumor weight): 29.4%
- Body weight (start) (6 8.0 mg/kg daily iv): 20.2 ± 0.7 g
- Tumor volume (start) (6 8.0 mg/kg daily iv): 79.4±28.4 mm3
- Average tumor weight (mean ± SD g) (6 8.0 mg/kg daily iv): 0.67 ± 0.46 g
- Body weight (End) (6 8.0 mg/kg daily iv): 23.4 ± 1.4 g
- RBW (%) (End) (6 8.0 mg/kg daily iv): 115.5±4.6%
- Tumor volume (End) (6 8.0 mg/kg daily iv): 521.0±319.9 mm3
